According to patent publication US6881729B2, “Bile compound and method of controlling behavior of lampreys therewith” (Board of Trustees of Michigan State University, priority 2001, dated 2005):

Experiments:
[1] = system: antibody against 3kPZS (polyclonal antiserum L286); experiment: ELISA cross-reactivity of the antiserum; type: binding, rabbit
Protocol: Plates were coated with polyclonal goat anti-rabbit IgG (Sigma; product code R2004) by adding 120 μL of antibody diluted in 0.05 M potassium phosphate buffer, pH 7.4 to each well and incubating overnight at 4° C. The plates were blocked by addition of 100 μL of 3% BSA in 0.1 M potassium phosphate buffered saline and storage at 4° C. for at least 12 h.
Non-specific binding (NSB) and maximum binding (B0) were measured in separate wells. Water washings, extracts, or HPLC fractions were diluted 20 times in assay buffer and 100 μL added to wells in duplicate; 50 μL of the diluted enzyme label (1:2000) was added to all wells and 50 μL of primary antibody (1:500,000) was added to all but NSB wells. Plates were incubated for 2 h at room temperature in a humid chamber. Then, after rinsing three times with wash buffer, 200 μL Ellmans reagent (4.3 mg DTNB, and 4 mg acetyl thiocholine in 20 mL 0.02 M potassium phosphate buffer) was added to each well. The plates were sealed and incubated overnight at room temperature in a humid chamber.
To test the cross-reactivity of the antibody to structurally related compounds, serial dilutions of ACA, PZ, PZS, CA, 3kACA, and 3kPZ were assayed alongside the 3kPZS standard.

[2] = diethyl ether extraction from buffers of different pH; type: physicochemical; settings: pH 4
Protocol: A trial was carried out in which a mixture of synthetic 3kPZS and 3kACA was dissolved in buffers of different pH and then extracted with diethyl ether. […] Based on this observation, an extract from 1 L of water that had been conditioned by a spermiating male was redissolved in 100 μL methanol and 900 μL of 0.05 M sodium acetate buffer, pH 4.0. This was extracted four times with 3 mL diethyl ether. The residue was then separated by HPLC as described above and the fractions assayed with the ELISA. Some of the extract which had not been treated with diethyl ether was treated in the same way. After these separations had been performed, standard synthetic 3kACA, 3kPZS and 3kPZ (200 μg each) were run on the column under identical conditions.

[3] = system: olfactory organs of adult females; experiment: electro-olfactography (EOG); type: in vivo, sea lamprey
Description: The response magnitude is expressed as the percentage of responses to 10^−5 M L-arginine, the standard odorant. Vertical bars, one standard deviation.

[4] = long-term storage of natural compound in ethanol; type: physicochemical; settings: 1 mg/mL in ethanol at −20° C. for over one year
Description: In Example 1, only a small supply of synthetic 3kPZS had been produced by enzymatic oxidation of the 3α-hydroxyl group of PZS. This restricted the number of comparisons that could be made between the natural and synthetic 3kPZS. This example completes these studies. This example confirms that both synthetic and natural 3kPZS have the same chromatographic properties and behave in the same way when treated with 3α-HSD and sulfatase. […] The reason for this has not been fully established. However, the natural compound that was used in this example had been stored at 1 mg/mL in ethanol at −20° C. for over one year, whereas the synthetic compound had been made up freshly. The possibility is that the sulfate group is unstable in long-term storage.

[5] = system: ovulated females; experiment: two-choice maze behavioral test (preference and searching); type: in vivo, sea lamprey, Petromyzon marinus
Description: Behavioral tests confirmed that the odor of spermiating males influences the distribution and locomotor activities of ripe females in a two-choice maize as follows. Animals were classified as spermiating males and ovulated females if milt and eggs, respectively, could be expressed by manual pressure, or otherwise as non-spermiating males and pre-ovulatory females, and used as either test subjects or odor donors in a flow through (0.07 m/s) maze (L 4.6 m×W 1.2 m) with plywood bottom, sides, and a partition in the middle which extended 2.4 m from the upstream end, and with plastic meshes blocking fish movement at both the upstream and downstream ends. Odor donors were held above the upstream mesh. Between 0700 and 1700 h, a single test subject was acclimated for 10 min in the maze, and its behavior video recorded for 20 min. Then, 5 lampreys (all of one sex and maturity) were introduced into the mesh chamber on a randomly chosen side, and behavior of test subjects recorded for another 20 min. When washings were used, a spermiating male was held in 10 L of water for four hours and the water introduced into the odor chamber at 75 mL/min. Naïve observers scored videotapes for the total time spent in each side before (Be and Bc) and after (Ae and Ac) odorant introduction. The scores were used to calculate an index of preference: I=(Ae/(Ae+Be))−(Ac/(Ac+Bc)). A similar index was computed for searching behaviors which involved pacing back and forth across the upstream barrier, increased swimming speed, and rapid beating of the tail.
When tested in a two-choice maze, ovulated females (but not males or pre-ovulatory females) spent more time in the compartment scented with washings from spermiating males (Table 1). There was no preference of ovulated females for washings of pre-spermiating males or females.
From this we estimated that in the two-choice maze experiments with live males, the pheromone reached a concentration between 0.1 and 0.2 ηM. Therefore, the converted PS was tested in the two-choice maze at a final concentration of 0.17 ηM.

[6] = weight for weight basis, compared with 3kPZS
[7] = ovulated females, final concentration of 0.17 ηM
[8] = ovulated females, flow-through maze, washings introduced at 75 mL/min, PP at final concentration of 0.17 ηM
[9] = ovulated females, searching behavior

C[C@H](CCC(=O)O)[C@H]1CC[C@H]2[C@@H]3[C@H](O)C[C@H]4CC(=O)CC[C@]4(C)[C@H]3C[C@H](O)[C@]12C [3kACA, 7α,12α-dihydroxy-5α-cholan-3-one-24-oic acid]
cross-reaction with the antiserum ([1]; relative to 3kPZS standard): 100% | cross-reaction with the antiserum [1, 6]: equally well | extraction into the diethyl ether phase [2]: could be extracted into the diethyl ether phase

C[C@H](CCCO)[C@H]1CC[C@H]2[C@@H]3[C@H](O)C[C@H]4CC(=O)CC[C@]4(C)[C@H]3C[C@H](O)[C@]12C [3kPZ, 7α,12α,24-trihydroxy-5α-cholan-3-one]
cross-reaction with the antiserum ([1]; relative to 3kPZS standard): 100% | cross-reaction with the antiserum [1, 6]: equally well

CC(CCCOS(=O)(=O)O)C1CCC2C3C(O)CC4CC(=O)CCC4(C)C3CC(O)C12C (stereo not drawn) [3kPZS, 7α,12α,24-trihydroxy-5α-cholan-3-one-24-sulfate]
olfactory stimulation by EOG ([3]; adult females): highly stimulatory | detection threshold ([3]; worked out from release rate and EOG detection of male washings after dilution of 10^6 times): about 10^−12 molar | stability in storage [4]: appeared to have broken down to 3kPZ | extraction into the diethyl ether phase [2]: not | level at which it attracts ovulated females ([5]; in words): sub-nanomolar | searching behavior in the scented side [5, 7]: increased searching behavior | time spent in the scented side [5, 7]: spent a longer time | No. animals that spent more time on side that was: Scented [5, 8]: 8 | No. animals that spent more time on side that was: Unscented [5, 8]: 0 | No. animals that spent more time searching on side that was: Scented [5, 9]: 6 | No. animals that spent more time searching on side that was: Unscented [5, 9]: 0

C[C@H](CCCOS(=O)(=O)O)[C@H]1CC[C@H]2[C@@H]3[C@H](O)C[C@H]4C[C@H](O)CC[C@]4(C)[C@H]3C[C@H](O)[C@]12C [PZS, 3α,7α,12α,24-tetrahydroxy-5α-cholan-24-sulfate]
cross-reaction with the antiserum ([1]; relative to 3kPZS standard): 1.6%
